Data: patent US9169252B2 (BRISTOL-MYERS SQUIBB COMPANY, priority 2014, dated 2015)
Like-named read-outs stand apart in the source and are kept apart here.

Columns and labels:
[1] = tested on: TLR2 induced IL-6 in peripheral blood mononuclear cells (PBMCs); experiment: PBMC TLR2 Induced IL-6 Assay; format: cell-based, human; settings: IL-6 by ELISA; for EC50: read-out: Cell EC50; for IC50: read-out: Cell IC50
Method: PBMC TLR2 Induced IL-6 Assay
Peripheral blood mononuclear cells (PBMCs) were isolated from human blood containing the anti-coagulant EDTA (2.5 mM) by centrifugation over a FICOLL® gradient. PBMCs (250000 cells/well) were cultured in assay media (RPMI with 10% heat inactivated FCS) with compounds for 30 minutes at 37° C. in a 5% CO2 incubator. Following pretreatment with compounds, cells were stimulated for 5 hours with 10 µg/ml lipoteichoic acid (Invivogen, San Diego, Calif.), a TLR2 agonist. At the end of the culture, plates were centrifuged at 1800 rpm for 10 minutes to pellet the cells.

IRAK4 = IRAK4 (Homo sapiens (Human), UniProt Q9NWZ3); experiment: IRAK4 Inhibition Assay; format: biochemical; settings: ATP 500 μM, read-out: IRAK4 IC50
IRAK4, sequence (Q9NWZ3 whole entry, species assumed): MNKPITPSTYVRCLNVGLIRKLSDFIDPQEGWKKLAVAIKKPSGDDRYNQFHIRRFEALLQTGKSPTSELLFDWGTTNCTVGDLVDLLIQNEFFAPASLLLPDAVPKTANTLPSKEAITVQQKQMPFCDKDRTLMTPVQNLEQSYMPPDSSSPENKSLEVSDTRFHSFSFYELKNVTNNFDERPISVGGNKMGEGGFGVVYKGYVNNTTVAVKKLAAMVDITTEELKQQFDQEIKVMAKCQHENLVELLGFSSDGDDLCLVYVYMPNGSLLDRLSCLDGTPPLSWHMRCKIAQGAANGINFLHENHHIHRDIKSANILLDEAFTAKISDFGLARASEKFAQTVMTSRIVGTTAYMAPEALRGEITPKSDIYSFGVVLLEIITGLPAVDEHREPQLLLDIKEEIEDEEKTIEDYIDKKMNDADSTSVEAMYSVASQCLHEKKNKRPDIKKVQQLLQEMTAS
Method: The assays were performed in U-bottom 384-well plates. […] The reaction was initiated by the combination of IRAK4 with substrates and test compounds. The reaction mixture was incubated at room temperature for 60 min. and terminated by adding 45 μL of 35 mM EDTA to each sample. The reaction mixture was analyzed on the Caliper LABCHIP® 3000 (Caliper, Hopkinton, Mass.) by electrophoretic separation of the fluorescent substrate and phosphorylated product.

[2] = Homo sapiens, PBMC, human PBMCs, lipoteichoic acid stimulated
[3] = Homo sapiens, PBMC, PBMC TLR2 Induced IL-6 Assay, lipoteichoic acid stimulation
[4] = human PBMCs, lipoteichoic acid stimulated

SMILES | IC50 (IRAK4; IRAK4 0.6 nM) [nM] | IC50 (IRAK4; IRAK4 Inhibition Assay) [nM] | IC50 [1, 3] [nM] | EC50 [1, 3] [nM] | further results
CC(C)(O)[C@H](F)CNC(=O)c1cnc(-n2ccc3cc(C#N)cnc32)cc1Nc1cccc(C#N)c1F [Example 430] | 2.1 |  |  |  | EC50 [1, 2]: 208 nM
CC(C)(O)[C@H](F)CNC(=O)c1cnc(-n2ccc3cc(C#N)cnc32)cc1N[C@@H]1CCN(C(=O)CC(F)(F)F)C1 [Example 473] | 4.1 |  |  |  | EC50 [1, 2]: 238 nM; IC50 [1, 2]: 483 nM
CC(O)CCNc1cc(-n2ccc3cc(C#N)cnc32)ncc1C(=O)NC[C@@H](F)C(C)(C)O (single isomer, unassigned) [Example 461] | 2.5 |  |  |  | EC50 [1, 4]: 74 nM; IC50 [1, 4]: 122 nM
CC(C)CNC(=O)c1cnc(-n2ncc3cc(C#N)cnc32)cc1Nc1cnn(CC(F)F)c1 [Example 391] |  | 6.2 | 241 |  | 
CC(C)(O)[C@H](F)CNC(=O)c1cnc(-n2ccc3cncnc32)cc1NC1CCOCC1 [Example 40, (R)—N-(2-fluoro-3-hydroxy-3-methylbutyl)-6-(7H-pyrrolo[2,3-d]pyrimidin-7-yl)-4-((tetrahydro-2H-pyran-4-yl)amino)nicotinamide] |  | 2 | 175 | 175 | 
CC(CCF)Nc1cc(-n2ccc3cc(C#N)cnc32)ncc1C(=O)NC[C@@H](F)C(C)(C)O (single isomer, unassigned) [Example 427] | 2.8 |  |  |  | EC50 [1, 4]: 89 nM
CC(C)(F)[C@H](F)CNC(=O)c1cnc(-n2cnc3cc(C#N)cnc32)cc1NC1COC1 [Example 344] |  | 13.5 | 144 |  | 
CC(C)(O)[C@H](F)CNC(=O)c1cnc(-n2ncc3cc(C#N)cnc32)cc1Nc1cnn(S(C)(=O)=O)c1 [Example 385] |  | 0.9 | 40 |  | 

Second part, led by results:

IC50 (IRAK4; IRAK4 0.6 nM) [nM] | IC50 (IRAK4; IRAK4 Inhibition Assay) [nM] | SMILES | IC50 [1, 3] [nM] | EC50 [1, 3] [nM] | further results
5.7 |  | CC(C)COC(=O)NCc1cnc2c(ccn2-c2cc(NC(C)C)c(C(=O)NC[C@@H](F)C(C)(C)O)cn2)c1 [Example 498] |  |  | IC50 [1, 2]: 248 nM
 | 2.3 | CC(C)(O)[C@H](F)CNC(=O)c1cnc(-n2ncc3cc(F)cnc32)cc1Nc1cnn(CC(F)F)c1 [Example 384] | 24 |  | 
 | 18.5 | CC(C)Nc1cc(-n2ncc3cnc(NC[C@@H](F)C(C)(C)O)nc32)ncc1C(=O)NC[C@@H](F)C(C)(C)O [Example 334] |  | 460 | 
 | 1.7 | CC(C)(C)Nc1cc(-n2ncc3cc(C#N)cnc32)ncc1C(=O)NC[C@@H](F)C(C)(C)O [Example 286] | 158 |  | 
 | 1.6 | CC(C)Nc1cc(-n2ccc3cc(F)cnc32)ncc1C(=O)NC[C@@H](F)C(C)(C)O [Example 38, (R)-6-(5-fluoro-1H-pyrrolo[2,3-b]pyridin-1-yl)-N-(2-fluoro-3-hydroxy-3-methylbutyl)-4-(isopropylamino)nicotinamide] |  | 84 | 
 | 4.2 | CC(C)Nc1cc(-n2ncc3cc(Br)cnc32)ncc1C(=O)NC[C@@H](F)C(C)(C)O [Example 158, (R)-6-(5-Bromo-1H-pyrazolo[3,4-b]pyridin-1-yl)-N-(2-fluoro-3-hydroxy-3-methylbutyl)-4-(isopropylamino)nicotinamide] |  | 127 | 
 | 2 | CC(F)[C@H](C)Nc1cc(-n2ccc3cc(C#N)cnc32)ncc1C(=O)NC[C@@H](F)C(C)(C)O (stereo partly drawn) [Example 72, 6-(5-cyano-1H-pyrrolo[2,3-b]pyridin-1-yl)-N—((R)-2-fluoro-3-hydroxy-3-methylbutyl)-4-(((2S)-3-fluorobutan-2-yl)amino) nicotinamide] |  | 72 | 
7 |  | Cc1cc(Nc2cc(-n3ncc4cc(C#N)cnc43)ncc2C(=O)NC[C@@H](F)C(C)(C)O)n(C)n1 [Example 413] |  |  | IC50 [1, 2]: 382 nM
 | 6.2 | C[C@@H](CF)Nc1cc(-n2ccc3cncnc32)ncc1C(=O)NC[C@@H](F)C(C)(C)O [Example 116, N—((R)-2-fluoro-3-hydroxy-3-methylbutyl)-4-(((S)-1-fluoropropan-2-yl)amino)-6-(7H-pyrrolo[2,3-d]pyrimidin-7-yl)nicotinamide] |  | 133 | 
 | 1.7 | CC(F)(F)Cn1cc(Nc2cc(-n3ncc4cc(C#N)cnc43)ncc2C(=O)NC[C@@H](F)C(C)(C)O)cn1 [Example 365] | 66 |  | 
